Source: patent US20120034193A1, “TREATMENT OF NEUROTROPHIC FACTOR MEDIATED DISORDERS” (priority 2009, published 2012)

Tests used:
Dopamine D1 = target: T1, Dopamine D1 (Homo sapiens, UniProt P21728); experiment: Receptor binding assay; conditions: sarsasapogenin 10 μM
T1 construct: host or cells: tissue or cell homogenate, not specified
Description: (§1) The receptor binding was investigated using the following method: Sarsasapogenin was incubated with tissue or cell homogenate that expressed the receptor of interest and a known concentration a radiolabelled compound with affinity for the receptor of interest. After the incubation period the non-bound radiolabelled compound was removed and the amount of specific binding was quantified. The amount of specific binding in the presence and absence of sarsasapogenin were compared and the percent inhibition of the binding of the radiolabelled compound by sarsasapogenin was calculated. The source of the receptor, the incubation conditions, the radiolabelled compound used varied depending on each specific assay.

Glucocorticoid = target: T2, Glucocorticoid (Homo sapiens, UniProt P04150); experiment: Receptor binding assay; conditions: sarsasapogenin 10 μM
T2 construct: host or cells: tissue or cell homogenate, not specified
Description: as §1

Muscarinic M1 = target: T3, Muscarinic M1 (Homo sapiens, UniProt P11229); experiment: Receptor binding assay; conditions: sarsasapogenin 10 μM
T3 construct: host or cells: tissue or cell homogenate, not specified
Description: as §1

Muscarinic M2 = target: T4, Muscarinic M2 (Homo sapiens, UniProt P08172); experiment: Receptor binding assay; conditions: sarsasapogenin 10 μM
T4 construct: host or cells: tissue or cell homogenate, not specified
Description: as §1

Muscarinic M3 = target: T5, Muscarinic M3 (Homo sapiens, UniProt P20309); experiment: Receptor binding assay; conditions: sarsasapogenin 10 μM
T5 construct: host or cells: tissue or cell homogenate, not specified
Description: as §1

Muscarinic M4 = target: T6, Muscarinic M4 (Homo sapiens, UniProt P08173); experiment: Receptor binding assay; conditions: sarsasapogenin 10 μM
T6 construct: host or cells: tissue or cell homogenate, not specified
Description: as §1

Muscarinic M5 = target: T7, Muscarinic M5 (Homo sapiens, UniProt P08912); experiment: Receptor binding assay; conditions: sarsasapogenin 10 μM
T7 construct: host or cells: tissue or cell homogenate, not specified
Description: as §1

Testosterone = Testosterone (Rattus norvegicus, UniProt P15207); experiment: Receptor binding assay; conditions: sarsasapogenin 10 μM
Description: as §1

Histamine H1 = target: T8, Histamine H1 (Cavia porcellus, UniProt P31389); experiment: Receptor binding assay; parameters: species or system Guinea Pig; conditions: sarsasapogenin 10 μM
T8 construct: host or cells: tissue or cell homogenate, not specified
Description: as §1

Chemokine CXCR1 = experiment: Binding assay; parameters: species or system Human; conditions: smilagenin 1 μM
Description: as §1
(§2) Using the same methods as described above, the binding of smilagenin (1 μM) to the receptors listed in Table 2 below, and the effect of smilagenin on the activity of the enzymes listed in Table 2 below, were investigated.

Nicotinic Acetylcholine = experiment: Binding assay; parameters: species or system Human; conditions: smilagenin 1 μM
Description: as §1, §2

[1] = system: Tumour Necrosis Factor (TNF), non-selective; experiment: Binding assay; parameters: species or system Human; conditions: smilagenin 1 μM
Description: as §1, §2

[2] = system: Vascular Endothelial Growth Factor (VEGF); experiment: Binding assay; parameters: species or system Human; conditions: smilagenin 1 μM
Description: as §1, §2

[3] = target: 5-Hydroxytryptamine, 5-HT4 (Cavia porcellus, UniProt O70528); experiment: Binding assay; parameters: species or system Guinea pig; conditions: smilagenin 1 μM
Description: as §1, §2

[4] = system: Atrial Natriuretic Factor; experiment: Binding assay; parameters: species or system Guinea pig; conditions: smilagenin 1 μM
Description: as §1, §2

Transporter, Adenosine = experiment: Binding assay; parameters: species or system Guinea pig; conditions: smilagenin 1 μM
Description: as §1, §2

GDNF [5] = experiment: GDNF in culture medium of rat dopaminergic neurones exposed to MPP+; type: cell-based; conditions: 10 μM from day 6, MPP+ 2 μM day 8 for 48 h; MPP+ alone 2.7 ± 0.5
Description: Rat dopaminergic neurones were prepared using a slightly modified previously described method (Brouard et al., Journal of Neuroscience, 1992, 12, pp. 1409-1415). On day 6 the culture medium was replaced with fresh medium or fresh medium containing smilagenin (10 μM) or vehicle (DMSO, 0.25%). On day 8, MPP^+ (2 μM) or vehicle (saline) was added and 48 h later dopaminergic neurones were stained and the concentration of GDNF in the culture medium, neuronal damage and neurite outgrowth were assessed.

GDNF [6] = experiment: Striatal GDNF in MPTP-lesioned mice (ELISA); type: in vivo, C57b1/6 RJ mice; conditions: smilagenin 10 mg/kg/day oral, 60 days, striatum
Description: Seven-week old male C57b1/6 RJ mice (C57 mice) received daily injections 1-methyl-4-phenyl-1,2,3,6-tetrahydropyridine (MPTP, 25 mg/kg/day, i.p., for 5 consecutive days) and oral administration of smilagenin (10 mg/kg/day) or vehicle (hydroxylpropylmethylcellulose, HPMC 0.5% w/v containing tween-80 0.2% v/v) for 60 days after which time their brains were removed for quantification of striatal levels of GDNF and BDNF using an ELISA and of dopamine transporter (DAT) levels using [I^125]-RTI binding. DAT is a marker for neuronal damage to dopaminergic neurones.

[7] = Long term oral toxicity study, mice; type: in vivo; conditions: high doses, up to 52 weeks in mice

T5 sequence (P20309 whole entry): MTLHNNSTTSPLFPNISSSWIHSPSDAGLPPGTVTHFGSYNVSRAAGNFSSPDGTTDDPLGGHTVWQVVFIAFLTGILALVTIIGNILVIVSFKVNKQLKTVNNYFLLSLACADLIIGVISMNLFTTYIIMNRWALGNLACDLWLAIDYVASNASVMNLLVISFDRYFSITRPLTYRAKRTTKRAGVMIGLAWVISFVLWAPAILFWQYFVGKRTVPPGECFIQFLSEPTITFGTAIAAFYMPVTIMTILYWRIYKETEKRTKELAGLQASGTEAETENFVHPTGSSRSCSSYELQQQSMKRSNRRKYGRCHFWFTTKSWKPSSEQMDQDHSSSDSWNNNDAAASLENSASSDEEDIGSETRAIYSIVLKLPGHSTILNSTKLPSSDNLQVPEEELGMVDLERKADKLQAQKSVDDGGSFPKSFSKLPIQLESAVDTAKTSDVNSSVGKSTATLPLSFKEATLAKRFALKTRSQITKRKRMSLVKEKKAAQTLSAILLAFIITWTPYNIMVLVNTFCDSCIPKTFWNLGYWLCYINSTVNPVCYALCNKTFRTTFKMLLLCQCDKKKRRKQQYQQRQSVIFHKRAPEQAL
T2 sequence (P04150 whole entry): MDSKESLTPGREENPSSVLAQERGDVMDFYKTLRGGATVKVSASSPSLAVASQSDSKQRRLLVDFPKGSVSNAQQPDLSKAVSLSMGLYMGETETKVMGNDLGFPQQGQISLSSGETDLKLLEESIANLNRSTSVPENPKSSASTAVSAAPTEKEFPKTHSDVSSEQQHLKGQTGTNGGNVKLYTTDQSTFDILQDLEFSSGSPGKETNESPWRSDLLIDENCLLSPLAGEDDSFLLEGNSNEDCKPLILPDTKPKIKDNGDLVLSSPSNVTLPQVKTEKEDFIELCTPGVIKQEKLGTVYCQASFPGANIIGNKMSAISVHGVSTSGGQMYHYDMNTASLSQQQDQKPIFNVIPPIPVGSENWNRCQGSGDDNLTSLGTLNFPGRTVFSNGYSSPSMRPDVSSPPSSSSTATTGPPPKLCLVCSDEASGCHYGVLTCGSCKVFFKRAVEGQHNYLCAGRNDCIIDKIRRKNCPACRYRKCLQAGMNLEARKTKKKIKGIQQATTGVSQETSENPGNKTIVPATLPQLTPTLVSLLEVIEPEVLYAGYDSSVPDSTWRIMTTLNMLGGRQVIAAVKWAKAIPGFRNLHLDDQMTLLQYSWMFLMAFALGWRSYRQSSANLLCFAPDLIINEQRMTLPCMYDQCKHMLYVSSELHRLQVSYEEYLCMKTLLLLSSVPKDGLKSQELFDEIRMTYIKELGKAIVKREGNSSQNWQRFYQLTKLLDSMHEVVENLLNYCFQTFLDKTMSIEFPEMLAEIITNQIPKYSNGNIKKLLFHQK
T4 sequence (P08172 whole entry): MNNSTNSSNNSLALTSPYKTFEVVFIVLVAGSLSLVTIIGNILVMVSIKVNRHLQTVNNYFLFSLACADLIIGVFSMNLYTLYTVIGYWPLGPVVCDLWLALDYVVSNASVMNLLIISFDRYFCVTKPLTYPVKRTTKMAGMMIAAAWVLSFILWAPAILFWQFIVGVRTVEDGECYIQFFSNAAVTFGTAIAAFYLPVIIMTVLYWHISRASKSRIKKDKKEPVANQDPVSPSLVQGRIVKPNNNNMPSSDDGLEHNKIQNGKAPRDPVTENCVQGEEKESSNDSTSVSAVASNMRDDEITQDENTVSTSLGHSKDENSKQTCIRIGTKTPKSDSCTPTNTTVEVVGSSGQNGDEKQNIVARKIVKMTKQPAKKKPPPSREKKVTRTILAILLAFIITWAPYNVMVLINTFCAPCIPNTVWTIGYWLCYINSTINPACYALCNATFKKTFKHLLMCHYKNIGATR
Sequence of Testosterone (P15207 whole entry S389L): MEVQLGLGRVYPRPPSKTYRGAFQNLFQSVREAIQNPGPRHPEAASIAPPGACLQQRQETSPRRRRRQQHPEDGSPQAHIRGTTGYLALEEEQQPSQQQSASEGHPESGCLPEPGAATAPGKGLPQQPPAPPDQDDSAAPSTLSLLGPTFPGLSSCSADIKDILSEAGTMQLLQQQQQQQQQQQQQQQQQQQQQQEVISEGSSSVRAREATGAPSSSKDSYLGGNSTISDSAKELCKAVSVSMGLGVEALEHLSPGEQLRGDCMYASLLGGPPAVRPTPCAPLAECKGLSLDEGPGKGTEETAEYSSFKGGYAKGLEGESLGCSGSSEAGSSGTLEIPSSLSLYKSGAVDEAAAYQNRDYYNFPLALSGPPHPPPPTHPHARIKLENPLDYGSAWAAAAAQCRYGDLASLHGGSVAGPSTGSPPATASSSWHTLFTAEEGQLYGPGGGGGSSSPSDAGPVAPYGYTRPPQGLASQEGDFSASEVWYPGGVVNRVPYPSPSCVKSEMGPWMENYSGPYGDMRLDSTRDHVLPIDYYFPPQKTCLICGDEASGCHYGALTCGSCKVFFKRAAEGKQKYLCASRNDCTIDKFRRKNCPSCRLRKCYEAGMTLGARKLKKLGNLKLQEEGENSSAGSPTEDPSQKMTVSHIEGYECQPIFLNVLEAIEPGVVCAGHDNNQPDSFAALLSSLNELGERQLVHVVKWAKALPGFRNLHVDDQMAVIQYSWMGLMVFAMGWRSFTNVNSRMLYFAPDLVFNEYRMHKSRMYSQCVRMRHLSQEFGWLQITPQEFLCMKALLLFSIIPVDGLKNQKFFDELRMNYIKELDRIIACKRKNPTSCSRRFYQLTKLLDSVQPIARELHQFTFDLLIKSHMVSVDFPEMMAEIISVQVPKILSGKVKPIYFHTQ
T7 sequence (P08912 whole entry): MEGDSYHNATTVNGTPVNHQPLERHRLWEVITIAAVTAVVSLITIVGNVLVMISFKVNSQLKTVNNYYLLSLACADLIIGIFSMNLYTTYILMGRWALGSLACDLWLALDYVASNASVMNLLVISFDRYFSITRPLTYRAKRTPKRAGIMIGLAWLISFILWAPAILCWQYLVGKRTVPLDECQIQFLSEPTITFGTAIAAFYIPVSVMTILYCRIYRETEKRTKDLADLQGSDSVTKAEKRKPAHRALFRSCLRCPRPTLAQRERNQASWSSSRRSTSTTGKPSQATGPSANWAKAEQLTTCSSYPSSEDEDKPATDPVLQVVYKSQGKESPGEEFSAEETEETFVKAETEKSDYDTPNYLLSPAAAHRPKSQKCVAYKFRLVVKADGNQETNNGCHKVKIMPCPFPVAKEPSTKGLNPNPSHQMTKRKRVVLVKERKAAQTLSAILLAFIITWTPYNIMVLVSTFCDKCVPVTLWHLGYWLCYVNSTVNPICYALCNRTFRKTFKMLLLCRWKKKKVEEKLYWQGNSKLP
T6 sequence (P08173 whole entry): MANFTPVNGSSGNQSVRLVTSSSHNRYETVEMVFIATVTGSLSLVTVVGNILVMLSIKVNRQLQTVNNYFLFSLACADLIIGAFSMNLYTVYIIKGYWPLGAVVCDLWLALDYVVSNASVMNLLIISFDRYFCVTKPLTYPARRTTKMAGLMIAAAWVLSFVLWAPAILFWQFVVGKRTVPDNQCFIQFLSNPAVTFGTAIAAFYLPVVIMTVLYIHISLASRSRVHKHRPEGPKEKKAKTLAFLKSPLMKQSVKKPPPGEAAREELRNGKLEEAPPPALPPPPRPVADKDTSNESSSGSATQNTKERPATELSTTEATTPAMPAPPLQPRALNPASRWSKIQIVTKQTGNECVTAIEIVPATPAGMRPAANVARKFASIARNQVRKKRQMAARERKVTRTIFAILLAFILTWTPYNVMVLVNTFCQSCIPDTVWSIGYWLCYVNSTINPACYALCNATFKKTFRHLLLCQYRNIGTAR
T3 sequence (P11229 whole entry): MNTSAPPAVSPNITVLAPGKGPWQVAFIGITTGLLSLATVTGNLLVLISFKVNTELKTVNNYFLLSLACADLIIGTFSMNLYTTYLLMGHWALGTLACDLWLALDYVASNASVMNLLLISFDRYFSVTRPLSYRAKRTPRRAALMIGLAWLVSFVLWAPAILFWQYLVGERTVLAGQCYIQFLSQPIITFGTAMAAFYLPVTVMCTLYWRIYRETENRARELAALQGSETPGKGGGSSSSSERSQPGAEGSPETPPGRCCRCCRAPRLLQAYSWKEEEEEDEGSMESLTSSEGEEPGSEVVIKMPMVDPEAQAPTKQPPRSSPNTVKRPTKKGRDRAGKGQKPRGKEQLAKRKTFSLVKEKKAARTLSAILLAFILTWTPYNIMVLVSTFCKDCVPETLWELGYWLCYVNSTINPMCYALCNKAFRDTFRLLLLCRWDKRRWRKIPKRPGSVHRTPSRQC
T1 sequence (P21728 whole entry): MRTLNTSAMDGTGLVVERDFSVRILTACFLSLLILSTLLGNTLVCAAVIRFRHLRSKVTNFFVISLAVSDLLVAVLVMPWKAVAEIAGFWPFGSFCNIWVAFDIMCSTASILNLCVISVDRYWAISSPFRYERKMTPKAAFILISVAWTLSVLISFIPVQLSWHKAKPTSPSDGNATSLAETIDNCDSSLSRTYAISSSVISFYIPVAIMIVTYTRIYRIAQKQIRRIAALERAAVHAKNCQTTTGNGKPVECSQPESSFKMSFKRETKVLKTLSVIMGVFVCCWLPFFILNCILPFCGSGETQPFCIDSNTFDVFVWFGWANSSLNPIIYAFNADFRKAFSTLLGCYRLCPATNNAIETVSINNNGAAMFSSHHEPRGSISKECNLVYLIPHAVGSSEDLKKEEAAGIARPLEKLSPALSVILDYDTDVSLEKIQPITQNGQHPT

Compound | Effect (%) (Dopamine D1) | Effect (%) (Glucocorticoid) | Effect (%) (Muscarinic M1) | Effect (%) (Muscarinic M2) | Effect (%) (Muscarinic M3) | Effect (%) (Muscarinic M4) | Effect (%) (Muscarinic M5) | Effect (%) (Testosterone) | Effect (%) (Histamine H1) | Effect (%) (Chemokine CXCR1) | Effect (%) (Nicotinic Acetylcholine) | Effect (%) [1] | Effect (%) [2] | Effect (%) [3] | Effect (%) [4] | Effect (%) (Transporter, Adenosine) | GDNF concentration (GDNF [5]) [pg/mL] | GDNF (% increase above MPTP mice) (GDNF [6]) [%] | GDNF (pg/mg tissue) (GDNF [6]) | Long term toxicity [7]
C[C@H]1CC[C@@]2(OC1)O[C@H]1C[C@H]3[C@@H]4CC[C@@H]5C[C@@H](O)CC[C@]5(C)[C@H]4CC[C@]3(C)[C@H]1[C@@H]2C [Sarsasapogenin, sarsasapogenin] | NS (NS = No significant response. Significance was taken as ≧30% stimulation or inhibition) | NS (NS = No significant response. Significance was taken as ≧30% stimulation or inhibition) | NS (NS = No significant response. Significance was taken as ≧30% stimulation or inhibition) | NS (NS = No significant response. Significance was taken as ≧30% stimulation or inhibition) | NS (NS = No significant response. Significance was taken as ≧30% stimulation or inhibition) | NS (NS = No significant response. Significance was taken as ≧30% stimulation or inhibition) | NS (NS = No significant response. Significance was taken as ≧30% stimulation or inhibition) | NS (NS = No significant response. Significance was taken as ≧30% stimulation or inhibition) | NS (NS = No significant response. Significance was taken as ≧30% stimulation or inhibition) |  |  |  |  |  |  |  |  |  |  | 
C[C@@H]1CC[C@@]2(OC1)O[C@H]1C[C@H]3[C@@H]4CC[C@@H]5C[C@@H](O)CC[C@]5(C)[C@H]4CC[C@]3(C)[C@H]1[C@@H]2C [Smilagenin, smilagenin] |  |  |  |  |  |  |  |  |  | NS (NS = No significant response. Significance was taken as ≧30% stimulation or inhibition) | NS (NS = No significant response. Significance was taken as ≧30% stimulation or inhibition) | NS (NS = No significant response. Significance was taken as ≧30% stimulation or inhibition) | NS (NS = No significant response. Significance was taken as ≧30% stimulation or inhibition) | NS (NS = No significant response. Significance was taken as ≧30% stimulation or inhibition) | NS (NS = No significant response. Significance was taken as ≧30% stimulation or inhibition) | NS (NS = No significant response. Significance was taken as ≧30% stimulation or inhibition) | 6.6 ± 0.7 | 372 ± 92 | 275.31 ± 59.62 | without showing any signs of toxicity or adverse events
